Data taken from US20230286970A1, “NOVEL OXADIAZOLE-BASED SELECTIVE HDAC6 INHIBITORS” (ITALFARMACO S.P.A., priority 2020, published 2023).

Tests used:
[1] = Stability to Phase I metabolism in human S9 liver fraction; conditions: after 90 minutes, 37° C.
Procedure: Test compounds were incubated in rat and human liver S9 fraction at 37° C. up to 90 minutes in order to evaluate their stability to Phase I metabolism by hepatic enzymes. Each test compound was incubated at μM concentration (50 μM when the samples were analysed by UV/HPLC, 1 or 2 μM when the samples were analysed by LC-MS/MS) with S9 fraction (protein content 2 mg/m L) in 100 mM phosphate buffer (pH 7.4), 3.3 mM MgCl2 and 1.3 mM NADPH for 0, 10, 30, 60 and 90 minutes at 37° C. in a thermostated oscillating bath. The reaction was stopped placing samples on ice bath and adding acidified acetonitrile. After centrifugation (10 minutes at 14000 rpm) an aliquot of the supernatant was diluted with water, filtered with 0.45 μm regenerated cellulose syringe filters and injected in HPLC-UV or in LC-MS/MS. The percentage of the remaining amount at the various incubation times with respect to the initial amount were calculated.

HDAC10 = HDAC10 (Homo sapiens (Human), UniProt Q969S8); test: Enzymatic screening, HDAC10 inhibition; format: biochemical
Procedure: (§1) For each test compound, 100× concentrated DMSO solutions at 8 doses were prepared and then diluted in assay buffer (25 mM Tris-HCl, pH 8, 130 mM NaCl, 0.05% Tween-20, 10% Glycerol) to obtain 5× concentrated solutions in relation to the final concentrations (typical final concentration range—6.4-200000 nM or 0.18-50000 nM, final DMSO content—1%). Then 10 μL solution of each test compound concentration were placed on a 96-well plate in triplicate and 15 μL of 3.33× concentrated enzyme solution in the assay buffer containing 3.33× concentrated BSA (final BSA concentration—2 mg/mL for HDAC4, HDAC5 and HDAC9 or 1 mg/mL for other isoforms) and in the case of HDAC6-3.33× concentrated TCEP (final TCEP concentration—200 μM) were added to each well. After a period of preincubation (incubation times and temperatures vary for different isoforms and are shown in table 1) 25 μL of solution containing the substrate were added. As substrate, FLUOR DE LYS® deacetylase substrate (Enzo Life Sciences, cat: BML-KI104, FdL), FLUOR DE LYS®-Green substrate (Enzo Life Sciences, cat: BML-KI572, FdL_G) or Boc-Lys(Tfa)-AMC (Bachem, cat: 4060676.005, Tfal)—2× concentrated solution in assay buffer were used. Following a reaction period (reaction times and temperatures vary for different isoforms and are reported in Table 1), 50 μL of the development solution consisting of concentrate FLUOR DE LYS® developer I (Enzo Life Sciences, ca: BML-KI105), diluted 200 times in buffer (50 mM Tris-HCl, pH 8, 137 mM NaCl, 2.7 mM KCl, 1 mM MgCl2) plus 2 μM TSA was added and, after 25 minutes at room temperature in the dark, using the Victor 1420 Multilabel Counter Perkin Elmer Wallac instrument, the fluorescence reading was carried out.

HDAC4 = HDAC4 (Homo sapiens (Human), UniProt P56524); test: Enzymatic screening, HDAC4 inhibition; format: biochemical
Procedure: as §1

HDAC9 = HDAC9 (Homo sapiens (Human), UniProt Q9UKV0); test: Enzymatic screening, HDAC9 inhibition; format: biochemical
Sequence of HDAC9 (Q9UKV0 whole entry): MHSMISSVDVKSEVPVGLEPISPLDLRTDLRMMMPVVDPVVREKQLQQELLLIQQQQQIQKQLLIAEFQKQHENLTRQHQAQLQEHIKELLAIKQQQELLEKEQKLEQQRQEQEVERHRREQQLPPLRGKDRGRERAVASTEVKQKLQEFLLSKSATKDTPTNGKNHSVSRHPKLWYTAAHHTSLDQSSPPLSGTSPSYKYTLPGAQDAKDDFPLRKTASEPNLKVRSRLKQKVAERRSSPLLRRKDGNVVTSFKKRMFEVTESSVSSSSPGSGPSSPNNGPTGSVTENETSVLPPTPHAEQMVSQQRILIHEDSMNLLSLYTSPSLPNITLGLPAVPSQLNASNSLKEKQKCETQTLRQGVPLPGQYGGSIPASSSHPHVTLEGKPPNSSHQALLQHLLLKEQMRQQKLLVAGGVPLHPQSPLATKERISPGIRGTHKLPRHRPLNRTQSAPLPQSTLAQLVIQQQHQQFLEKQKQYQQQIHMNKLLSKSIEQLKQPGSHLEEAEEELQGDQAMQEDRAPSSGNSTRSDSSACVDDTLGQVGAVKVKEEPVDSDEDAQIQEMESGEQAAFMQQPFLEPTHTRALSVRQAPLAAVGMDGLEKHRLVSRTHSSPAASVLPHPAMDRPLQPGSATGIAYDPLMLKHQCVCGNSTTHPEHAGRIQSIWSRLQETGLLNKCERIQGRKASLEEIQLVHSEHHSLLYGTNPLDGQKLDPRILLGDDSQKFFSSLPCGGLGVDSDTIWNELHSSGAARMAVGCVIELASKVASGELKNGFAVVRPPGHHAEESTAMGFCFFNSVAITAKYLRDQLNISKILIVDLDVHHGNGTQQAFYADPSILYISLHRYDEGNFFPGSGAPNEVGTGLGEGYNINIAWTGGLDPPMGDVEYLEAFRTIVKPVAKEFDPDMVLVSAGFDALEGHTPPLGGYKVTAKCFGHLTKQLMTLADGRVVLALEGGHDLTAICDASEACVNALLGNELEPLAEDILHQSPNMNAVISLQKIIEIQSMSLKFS
Procedure: as §1

[2] = system: α-tubulin acetylation in 697 cell line; test: In vitro α-tubulin acetylation in 697 cell line (ELISA); format: cell-based; conditions: 16 hours, read-out: fold increase @ 1 uM TubAc (ratio of acetylated tubulin and total tubulin towards control)
Outline: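 B 697 cells in RPMI 10% FCS were treated for 16 h at 37 °C with compound at 1000, 333, 111 or 37 nM. Lysate (0.3 μg protein) was coated and probed by ELISA for acetylated and total α-tubulin, read at 450 nm. The acetylated/total ratio is given as fold over untreated control.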

recombinant human HDAC1 = recombinant human HDAC1 (Homo sapiens (Human), UniProt Q13547); test: Enzymatic screening, HDAC1 inhibition (fluorogenic FdL_G substrate); format: biochemical
Sequence of recombinant human HDAC1 (Q13547 whole entry): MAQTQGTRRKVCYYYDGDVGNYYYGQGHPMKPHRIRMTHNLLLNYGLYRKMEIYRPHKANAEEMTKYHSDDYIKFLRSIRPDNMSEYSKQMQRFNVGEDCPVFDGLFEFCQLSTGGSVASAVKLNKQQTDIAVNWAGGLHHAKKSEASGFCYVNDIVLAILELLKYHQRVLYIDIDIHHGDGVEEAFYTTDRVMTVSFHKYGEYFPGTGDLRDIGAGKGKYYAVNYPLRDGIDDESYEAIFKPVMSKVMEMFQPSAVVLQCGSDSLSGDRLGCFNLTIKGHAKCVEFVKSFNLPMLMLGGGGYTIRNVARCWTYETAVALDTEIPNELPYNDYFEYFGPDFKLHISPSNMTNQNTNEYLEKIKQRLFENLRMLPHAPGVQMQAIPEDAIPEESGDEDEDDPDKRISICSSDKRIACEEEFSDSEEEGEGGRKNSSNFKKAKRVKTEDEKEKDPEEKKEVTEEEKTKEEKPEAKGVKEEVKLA
Outline: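 Recombinant human HDAC1 inhibition was measured fluorometrically using the FLUOR DE LYS-Green (FdL_G) substrate. Compounds at 8 doses (1% DMSO final) in Tris-HCl pH 8 buffer with NaCl, Tween-20 and glycerol were preincubated in triplicate with enzyme and 1 mg/mL BSA, then given substrate. Developer I plus 2 μM TSA was added, and fluorescence read after 25 minutes in the dark.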

HDAC2 = HDAC2 (Homo sapiens (Human), UniProt Q92769); test: Enzymatic screening, HDAC2 inhibition; format: biochemical
Sequence of HDAC2 (Q92769 whole entry): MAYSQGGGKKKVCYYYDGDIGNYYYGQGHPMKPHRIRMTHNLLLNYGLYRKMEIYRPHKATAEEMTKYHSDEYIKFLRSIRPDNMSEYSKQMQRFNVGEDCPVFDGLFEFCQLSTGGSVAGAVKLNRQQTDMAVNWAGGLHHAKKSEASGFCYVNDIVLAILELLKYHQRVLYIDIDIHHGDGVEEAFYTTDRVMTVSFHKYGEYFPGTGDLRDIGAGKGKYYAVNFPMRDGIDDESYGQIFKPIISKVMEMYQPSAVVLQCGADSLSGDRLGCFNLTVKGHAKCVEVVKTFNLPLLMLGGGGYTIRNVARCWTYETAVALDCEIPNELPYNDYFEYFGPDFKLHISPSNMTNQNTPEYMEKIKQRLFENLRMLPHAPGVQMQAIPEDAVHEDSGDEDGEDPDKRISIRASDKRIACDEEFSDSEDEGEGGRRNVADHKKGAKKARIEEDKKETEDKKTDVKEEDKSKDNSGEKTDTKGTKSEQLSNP
Procedure: as §1

Stability in rat plasma = conditions: after 4 hours, 37° C.
[3] = Stability to Phase I metabolism in rat S9 liver fraction; conditions: after 90 minutes, 37° C.
HDAC3 = HDAC3 (Homo sapiens (Human), UniProt O15379); test: Enzymatic screening, HDAC3 inhibition; format: biochemical
Sequence of HDAC3 (O15379 whole entry): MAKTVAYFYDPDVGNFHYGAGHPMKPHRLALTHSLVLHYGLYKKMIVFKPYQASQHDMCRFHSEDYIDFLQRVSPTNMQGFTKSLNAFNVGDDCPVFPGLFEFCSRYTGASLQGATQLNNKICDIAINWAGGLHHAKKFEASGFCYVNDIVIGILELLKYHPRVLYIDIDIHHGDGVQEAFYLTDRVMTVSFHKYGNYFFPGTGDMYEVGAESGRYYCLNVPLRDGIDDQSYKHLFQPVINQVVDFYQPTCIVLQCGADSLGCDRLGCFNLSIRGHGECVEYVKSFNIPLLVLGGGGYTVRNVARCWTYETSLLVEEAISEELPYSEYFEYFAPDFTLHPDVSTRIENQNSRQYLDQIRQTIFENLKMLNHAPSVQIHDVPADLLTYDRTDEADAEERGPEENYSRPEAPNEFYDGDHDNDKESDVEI
Sequence of HDAC3 (Q9Y618 395-489 partner): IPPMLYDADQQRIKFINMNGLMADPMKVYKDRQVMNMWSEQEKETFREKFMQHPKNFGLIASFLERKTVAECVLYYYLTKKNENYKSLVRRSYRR
Procedure: as §1

recombinant human HDAC6 = recombinant human HDAC6 (Homo sapiens (Human), UniProt Q9UBN7); test: Enzymatic screening, HDAC6 inhibition (fluorogenic FdL_G substrate); format: biochemical
Outline: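 Enzyme was preincubated with compound (8 doses, triplicate, 1% DMSO) in 25 mM Tris-HCl pH 8, 130 mM NaCl, 0.05% Tween-20, 10% glycerol, with BSA. A FLUOR DE LYS-Green substrate was then added, and fluorescence was read after developer plus 2 μM TSA.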

[4] = Stability in human plasma; conditions: after 4 hours, 37° C.
HDAC5 = HDAC5 (Homo sapiens (Human), UniProt Q9UQL6); test: Enzymatic screening, HDAC5 inhibition; format: biochemical
Procedure: as §1

HDAC7 = HDAC7 (Homo sapiens (Human), UniProt Q8WUI4); test: Enzymatic screening, HDAC7 inhibition; format: biochemical
Sequence of HDAC7 (Q8WUI4 whole entry): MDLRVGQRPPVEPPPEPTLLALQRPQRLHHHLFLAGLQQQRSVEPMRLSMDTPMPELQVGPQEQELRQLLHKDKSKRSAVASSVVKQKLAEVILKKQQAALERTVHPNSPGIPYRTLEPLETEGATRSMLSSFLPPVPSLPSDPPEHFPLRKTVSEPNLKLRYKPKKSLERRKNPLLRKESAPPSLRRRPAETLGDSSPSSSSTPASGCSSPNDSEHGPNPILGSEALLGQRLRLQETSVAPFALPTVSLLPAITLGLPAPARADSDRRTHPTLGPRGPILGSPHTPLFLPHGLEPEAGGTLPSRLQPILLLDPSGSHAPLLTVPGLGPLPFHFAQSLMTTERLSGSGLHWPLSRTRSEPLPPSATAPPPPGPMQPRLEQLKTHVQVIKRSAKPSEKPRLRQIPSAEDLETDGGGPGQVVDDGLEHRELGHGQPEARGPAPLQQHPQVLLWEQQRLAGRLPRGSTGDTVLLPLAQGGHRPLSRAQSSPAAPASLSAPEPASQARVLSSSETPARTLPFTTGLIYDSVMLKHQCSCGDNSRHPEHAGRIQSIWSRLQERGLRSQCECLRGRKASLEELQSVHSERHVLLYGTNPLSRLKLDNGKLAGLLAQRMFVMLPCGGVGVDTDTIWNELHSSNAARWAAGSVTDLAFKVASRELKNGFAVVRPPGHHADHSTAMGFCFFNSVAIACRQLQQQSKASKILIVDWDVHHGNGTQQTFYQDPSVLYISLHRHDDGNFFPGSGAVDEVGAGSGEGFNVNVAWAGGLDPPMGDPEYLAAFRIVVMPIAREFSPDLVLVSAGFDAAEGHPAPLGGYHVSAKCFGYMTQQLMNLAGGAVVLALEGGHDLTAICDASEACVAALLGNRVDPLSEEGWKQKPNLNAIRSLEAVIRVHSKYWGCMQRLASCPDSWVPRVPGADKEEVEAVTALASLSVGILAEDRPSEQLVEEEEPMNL
Procedure: as §1

HDAC8 = HDAC8 (Homo sapiens (Human), UniProt Q9BY41); test: Enzymatic screening, HDAC8 inhibition; format: biochemical
Sequence of HDAC8 (Q9BY41 whole entry): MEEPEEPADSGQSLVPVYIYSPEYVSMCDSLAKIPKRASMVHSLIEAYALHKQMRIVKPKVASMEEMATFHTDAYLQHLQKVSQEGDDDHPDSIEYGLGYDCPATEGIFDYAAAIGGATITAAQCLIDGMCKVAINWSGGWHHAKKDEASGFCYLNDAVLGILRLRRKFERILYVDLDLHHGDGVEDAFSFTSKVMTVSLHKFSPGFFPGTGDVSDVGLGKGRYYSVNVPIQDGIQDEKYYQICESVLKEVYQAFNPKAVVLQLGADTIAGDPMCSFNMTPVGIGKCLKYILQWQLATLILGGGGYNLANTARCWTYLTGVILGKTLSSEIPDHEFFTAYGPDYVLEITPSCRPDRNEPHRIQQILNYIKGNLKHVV
Procedure: as §1

HDAC11 = HDAC11 (Homo sapiens (Human), UniProt Q96DB2); test: Enzymatic screening, HDAC11 inhibition; format: biochemical
Sequence of HDAC11 (Q96DB2 whole entry): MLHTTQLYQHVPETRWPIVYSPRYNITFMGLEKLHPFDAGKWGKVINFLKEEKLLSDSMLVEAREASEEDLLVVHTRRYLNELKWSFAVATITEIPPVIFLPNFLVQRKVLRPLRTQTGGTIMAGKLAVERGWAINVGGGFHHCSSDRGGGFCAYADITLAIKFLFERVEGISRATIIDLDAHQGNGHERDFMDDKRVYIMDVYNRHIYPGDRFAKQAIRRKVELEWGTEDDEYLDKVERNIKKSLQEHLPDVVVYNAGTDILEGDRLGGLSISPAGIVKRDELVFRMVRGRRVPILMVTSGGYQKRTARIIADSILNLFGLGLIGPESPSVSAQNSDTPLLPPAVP
Procedure: as §1

Sequence of HDAC10 (Q969S8 whole entry, canonical isoform): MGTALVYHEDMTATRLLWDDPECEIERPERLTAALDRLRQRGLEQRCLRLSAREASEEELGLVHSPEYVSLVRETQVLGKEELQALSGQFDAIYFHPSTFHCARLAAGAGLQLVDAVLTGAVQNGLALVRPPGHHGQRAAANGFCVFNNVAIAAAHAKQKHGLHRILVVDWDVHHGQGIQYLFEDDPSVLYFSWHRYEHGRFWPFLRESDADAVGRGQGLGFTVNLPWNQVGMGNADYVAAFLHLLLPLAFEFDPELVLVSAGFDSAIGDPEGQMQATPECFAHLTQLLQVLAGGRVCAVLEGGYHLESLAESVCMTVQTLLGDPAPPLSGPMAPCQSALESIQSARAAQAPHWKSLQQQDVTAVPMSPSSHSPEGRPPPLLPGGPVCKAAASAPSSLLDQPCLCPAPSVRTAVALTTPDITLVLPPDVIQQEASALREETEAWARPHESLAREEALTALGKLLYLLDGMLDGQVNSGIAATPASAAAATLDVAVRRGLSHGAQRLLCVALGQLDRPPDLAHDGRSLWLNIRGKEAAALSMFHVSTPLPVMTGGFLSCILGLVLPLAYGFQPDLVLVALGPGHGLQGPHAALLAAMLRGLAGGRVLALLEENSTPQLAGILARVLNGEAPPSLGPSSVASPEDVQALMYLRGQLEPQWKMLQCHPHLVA

| Compound | residual percentage in HUMAN S9 FRACTION [1] [%] | IC50 (HDAC10) [µM] | IC50 (HDAC4) [µM] | IC50 (HDAC9) [µM] | fold induction at 1 µM [2] | IC50 (recombinant human HDAC1) [µM] | IC50 (HDAC2) [µM] | residual percentage in RAT PLASMA (Stability in rat plasma) [%] | residual percentage in RAT S9 FRACTION [3] [%] | IC50 (HDAC3) [µM] | IC50 (recombinant human HDAC6) [µM] | residual percentage in HUMAN PLASMA [4] [%] | IC50 (HDAC5) [µM] | IC50 (HDAC7) [µM] | IC50 (HDAC8) [µM] | IC50 (HDAC11) [µM] |
| --- | --- | --- | --- | --- | --- | --- | --- | --- | --- | --- | --- | --- | --- | --- | --- | --- |
| Nc1ccc(-c2cn(Cc3ccc(-c4nnc(C(F)F)o4)c(F)c3F)nn2)cn1 [compound 21, 5-(1-(4-(5-(difluoromethyl)-1,3,4-oxadiazol-2-yl)-2,3-difluorobenzyl)-1H-1,2,3-triazol-4-yl)pyridin-2-amine] | 99 | > 30 | > 30 | > 30 | 16 | > 200 | > 30 | 75 | 90 | > 30 | 0.017 | 84 | > 30 | > 30 | > 200 | > 30 |
| Nc1nc2cc(-c3cn(Cc4ccc(-c5nnc(C(F)F)o5)cn4)nn3)ccc2s1 [Compd. 3, 5-(1-((5-(5-(difluoromethyl)-1,3,4-oxadiazol-2-yl)pyridin-2-yl)methyl)-1H-1,2,3-triazol-4-yl)benzo[d]thiazol-2-amine] | 97 | > 30 | > 30 | 22.5 | 13 | > 200 | > 30 | 80 | 90 | > 30 | 0.01 | 70 | > 30 | > 30 | > 200 | > 30 |
| Nc1ccc(-c2cn(Cc3ccc(-c4nnc(C(F)F)o4)cn3)nn2)cn1 [compound 5, 5-(1-((5-(5-(difluoromethyl)-1,3,4-oxadiazol-2-yl)pyridin-2-yl)methyl)-1H-1,2,3-triazol-4-yl)pyridin-2-amine] | 92 | > 30 | > 30 | > 30 | 19 | > 200 | > 30 | 70 | 93 | > 30 | 0.012 | 74 | > 30 | > 30 | > 200 | > 30 |
| Nc1ccc(-c2cn(Cc3ccc(-c4nnc(C(F)F)o4)cn3)cn2)cn1 [compound 12, 5-(1-((5-(5-(difluoromethyl)-1,3,4-oxadiazol-2-yl)pyridin-2-yl)methyl)-1H-imidazol-4-yl)pyridin-2-amine] | 96 | > 30 | > 30 | > 30 | 11 | > 200 | > 30 | 86 | 98 | > 30 | 0.02 | 82 | > 30 | > 30 | > 200 | > 30 |
| FC(F)c1nnc(-c2ccc(Cn3cnc(-c4ccc(NC5=NCCN5)cc4)c3)cc2)o1 [compound 22, N-(4-(1-(4-(5-(difluoromethyl)-1,3,4-oxadiazol-2-yl)benzyl)-1H-imidazol-4-yl)phenyl)-4,5-dihydro-1H-imidazol-2-amine] | 88 | > 30 | > 30 | > 30 | 17 | > 200 | > 30 | 96 | 98 | > 30 | 0.017 | 92 | > 30 | > 30 | > 200 | > 30 |
| Nc1nc2cc(-c3cn(Cc4ccc(-c5nnc(C(F)F)o5)cc4)nn3)ccc2[nH]1 [Compd. 8, 5-(1-(4-(5-(difluoromethyl)-1,3,4-oxadiazol-2-yl)benzyl)-1H-1,2,3-triazol-4-yl)-1H-benzo[d]imidazol-2-amine] | 95 | > 30 | > 30 | > 30 | 10 | > 200 | > 30 | 76 | 94 | > 30 | 0.014 | 99 | > 30 | > 30 | > 200 | > 30 |
| FC(F)c1nnc(-c2ccc(Cn3cc(-c4ccc5nc(Cl)[nH]c5c4)nn3)nc2)o1 [Compd. 9, 2-(6-((4-(2-chloro-1H-benzo[d]imidazol-6-yl)-1H-1,2,3-triazol-1-yl)methyl)pyridin-3-yl)-5-(difluoromethyl)-1,3,4-oxadiazole] | 83 | > 30 | 5.01 | 0.971 | 17 | > 200 | > 30 | 87 | 90 | > 30 | 0.015 | 59 | 1.51 | 3.08 | 1.41 | > 30 |
| O=C1NCc2ccc(-c3nnn(Cc4ccc(-c5nnc(C(F)F)o5)cn4)n3)cc21 [compound 4, 6-(2-((5-(5-(difluoromethyl)-1,3,4-oxadiazol-2-yl)pyridin-2-yl)methyl)-2H-tetrazol-5-yl)isoindolin-1-one] | 77 | > 30 | > 30 | > 30 | 13 | > 200 | > 30 | 78 | 77 | > 30 | 0.012 | 80 | > 30 | > 30 | > 200 | > 30 |
| Cn1c(N)nc2cc(-c3cn(Cc4ccc(-c5nnc(C(F)F)o5)cn4)nn3)ccc21 [Compd. 17, 5-(1-((5-(5-(difluoromethyl)-1,3,4-oxadiazol-2-yl)pyridin-2-yl)methyl)-1H-1,2,3-triazol-4-yl)-1-methyl-1H-benzo[d]imidazol-2-amine] | 84 | > 30 | > 30 | > 30 | 32 | > 200 | > 30 | 85 | 99 | > 30 | 0.008 | 82 | > 30 | > 30 | > 200 | > 30 |
